One block for each compound: values may come before it.
Experiments:
[1] = Hypolipidaemic activity in Sprague-Dawley rats fed a 1.5% cholesterol-enriched diet for a week; assay type: in vivo; details: for Blood Total Cholesterol, Treating, Mean ± SE / Blood Total Cholesterol, % Change: 1 mg/kg/day, rats fed […] cholesterol-enriched diet for a week; for Blood Total Cholesterol, Treating, Mean ± SE: n = 9, * p ≤ 0.01 (Dunnett's test); for Blood Total Cholesterol, % Change: treating vs control
Protocol: Moreover, the compounds of the invention are useful as antidyslipidaemic agents, indeed they show a high activity in lowering total serum cholesterol and triglycerides. […] Table II exemplifies the results obtained by testing the hypolipidaemic activity of a representative group of compounds of the invention administered at the dose of 1 mg/kg/day to Sprague-Dawley rats fed 1.5% cholesterol-enriched diet for a week.
Hypocholesterolaemic activity of FCE compounds given at
1 mg/kg/day to rats fed 1.5% cholesterol-enriched diet

[2] = molecular target: T1, acyl CoA:cholesterol acyltransferase (ACAT-EC 2.3.1.26) (Oryctolagus cuniculus, UniProt A0A5F9CPP4); assay: Inhibition of ACAT activity in microsomal preparations from atherosclerotic rabbit thoracic aorta; assay type: biochemical; details: microsomes from atherosclerotic rabbit thoracic aorta; read-out: IC50 values for the inhibition activity in microsomes from atherosclerotic rabbit thoracic aortae
T1 construct: microsomal preparations from atherosclerotic rabbit thoracic aorta; from tissue; host or cells: microsomes of atherosclerotic rabbit thoracic aorta
T1 sequence (A0A5F9CPP4 1-555): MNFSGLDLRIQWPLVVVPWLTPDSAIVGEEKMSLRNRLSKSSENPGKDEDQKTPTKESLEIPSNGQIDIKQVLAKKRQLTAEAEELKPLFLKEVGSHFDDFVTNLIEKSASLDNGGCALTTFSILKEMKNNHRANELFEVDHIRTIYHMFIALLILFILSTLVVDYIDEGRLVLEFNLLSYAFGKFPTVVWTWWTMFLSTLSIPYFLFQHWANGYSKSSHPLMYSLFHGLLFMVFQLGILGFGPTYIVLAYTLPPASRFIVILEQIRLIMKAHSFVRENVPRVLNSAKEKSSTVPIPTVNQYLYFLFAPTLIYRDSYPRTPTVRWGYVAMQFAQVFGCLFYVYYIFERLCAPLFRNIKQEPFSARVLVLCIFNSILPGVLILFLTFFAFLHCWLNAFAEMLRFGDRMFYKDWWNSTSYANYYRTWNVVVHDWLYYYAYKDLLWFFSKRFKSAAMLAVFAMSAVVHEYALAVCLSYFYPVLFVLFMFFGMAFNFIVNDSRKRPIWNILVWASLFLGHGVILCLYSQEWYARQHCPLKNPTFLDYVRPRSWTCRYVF

[3] = Hypolipidaemic effect in New Zealand White rabbits fed a 1% cholesterol-enriched diet for 30 days; assay type: in vivo; details: compound added to the diet; for ED50: Oryctolagus cuniculus, 720 h
[4] = Hypolipidaemic activity in Sprague-Dawley rats fed a 1.5% cholesterol-enriched diet for a week; assay type: in vivo; details: Rattus norvegicus, 168 h, 1.5% cholesterol-enriched chow for a week, compound added to the diet
[5] = Liver cholesterol accumulation in albino mice fed a 1.5% cholesterol-enriched diet for seven hours; assay type: in vivo; details: acute oral dose of 10 mg/kg
[6] = liver, read-out: ED50 for the cholesterol lowering effect in liver
[7] = plasma, read-out: ED50 for the cholesterol lowering effect in plasma

Compound: CC(C)c1cccc(C(C)C)c1NC(=O)NCC1(C2CCCCC2)O[C@@H](C)[C@H](C)O1 [FCE 27480, N-[2,6-bis(1-methylethyl)phenyl]-N'-[(4S, 5S)-2-cyclohexyl-4,5-dimethyldioxolan-2-yl]methylurea]
Blood Total Cholesterol, Treating, Mean ± SE [1]: 85 ± 9 mg/dL
Blood Total Cholesterol, % Change [1]: -46%

IC50 [2]: 9.5 nM
Compound: CC(C)c1cccc(C(C)C)c1NC(=O)NCC1(C2CCCCC2)SCCS1 [FCE 27612, N-[2,6-bis(1-methylethyl)phenyl]-N'-(2-cyclohexyl-1,3-dithiolan-2-yl)methylurea]
Blood Total Cholesterol, Treating, Mean ± SE [1]: 59 ± 7 mg/dL
Blood Total Cholesterol, % Change [1]: -72%

Compound: CC(C)c1cccc(C(C)C)c1NC(=O)NCC1(c2ccccc2)OC(C)C(C)O1 (stereo not drawn) [FCE 27050, N-[2,6-bis(1-methylethyl)phenyl]-N'-[(2RS,4RS,5RS)-4,5-dimethyl-2-phenyldioxolan-2-yl]methylurea]
ED50 [3, 6]: 0.16 mg/kg
ED50 [3, 7]: 0.19 mg/kg
accumulation of cholesterol in the liver [3]: prevented the accumulation of cholesterol in the liver
hypolipidaemic effect [3]: potent hypolipidaemic effect
ED50 [4, 6]: 0.51 mg/kg
ED50 [4, 7]: 0.83 mg/kg
Blood Total Cholesterol, Treating, Mean ± SE [1]: 62 ± 5 mg/dL
Blood Total Cholesterol, % Change [1]: -60%
hypolipidaemic effect ([1]; Sprague-Dawley rats, […] cholesterol-enriched chow for a week, compound added to the diet): remarkable hypolipidaemic effect
accumulation of cholesterol in the liver [5]: prevented in a significative fashion the accumulation of cholesterol in the liver

IC50 [2]: 7.47 nM
Compound: CCOC(CNC(=O)Nc1c(C(C)C)cccc1C(C)C)(OCC)c1ccccc1 [FCE 27020, N-[2,6-bis(1-methylethyl)phenyl]-N'-(2,2-diethoxy-2-phenyl) ethylurea]

Compound: CC(C)c1cccc(C(C)C)c1NC(=O)NCC1(c2ccc(N(C)C)cc2)OCC(C)(C)CO1 [FCE 27607, N-[2,6-bis(1-methylethyl)phenyl]-N'-[2-(4-dimethylaminophenyl)-5,5-dimethyl-1,3-dioxan-2-yl]methylurea]
Blood Total Cholesterol, Treating, Mean ± SE [1]: 110 ± 8 mg/dL
Blood Total Cholesterol, % Change [1]: -48%

Compound: CC(C)c1cccc(C(C)C)c1NC(=O)NCC1(c2ccccc2)O[C@H](C)[C@@H](C)O1 [FCE 27529, N-[2,6-bis(1-methylethyl)phenyl]-N'-[(4R,5R)-4,5-dimethyl-2-phenyldioxolan-2-yl]methylurea]
Blood Total Cholesterol, Treating, Mean ± SE [1]: 75 ± 4 mg/dL
Blood Total Cholesterol, % Change [1]: -62%

IC50 [2]: 6.5 nM
Compound: CC(C)c1cccc(C(C)C)c1NC(=O)NCC1(C2CCCCC2)OCC(C)(C)CO1 [FCE 27356, N-[2,6-bis(1-methylethyl)phenyl]-N'-(2-cyclohexyl-5,5-dimethyl-1,3-dioxan-2-yl)methylurea]

— patent publication US5264441A, “Disubstituted ureas and thioureas derivatives” (Farmitalia Carlo Erba S.r.l., priority 1991, dated 1993)
